Source: patent US20250154198A1, “PEPTIDE INHIBITORS OF INTERLEUKIN-23 RECEPTOR” (Zealand Pharma A/S, priority 2021, published 2025)
*1 amine or outer side, *2 acyl side, *3 side chain or, on linkers, in order; H or OH if unused. Where a SMILES comes first, the peptide text is derived from it. Bridges are numbered along the chain shown (N, C = ends). [ ]: non-standard residue; d: D form. Trp(6-F) = N[C@@H](Cc1c[nH]c2cc(F)ccc12)C(=O)O; αMeAla(3-pyridyl) = C[C@](N)(Cc1cccnc1)C(=O)O; Trp(1-Me) = Cn1cc(C[C@H](N)C(=O)O)c2ccccc21; Phe(3,4-Me2) = Cc1ccc(C[C@H](N)C(=O)O)cc1C; αMeW = C[C@](N)(Cc1c[nH]c2ccccc12)C(=O)O; 2Nal = N[C@@H](Cc1ccc2ccccc2c1)C(=O)O; AEF = NCCOc1ccc(C[C@H](N)C(=O)O)cc1; X1 = O=C(Cc1ccc(CN[*:1])cc1)[*:2]; 3Pal = N[C@@H](Cc1cccnc1)C(=O)O; αMeL = CC(C)C[C@](C)(N)C(=O)O; CH2COCH2 = O=C(C[*:1])C[*:2]; αMeV = CC(C)[C@](C)(N)C(=O)O; Dab = NCC[C@H](N)C(=O)O

Key:
[1] = Peptide stability in simulated gastric fluid (SGF); assay type: in vitro ADME; conditions: pig
Protocol: Determination of Peptide Stability in Simulated Gastric Fluid (SGF) and Simulated Intestinal Fluid (SIF)
SGF was prepared by dissolving sodium chloride (0.2 g) in 50 mL of water. A volume of 0.7 mL of 10 M HCl was added to adjust the pH of the solution to 1.2 and the volume made up to 100 mL with water. […] SIF was prepared by dissolving monobasic potassium phosphate (0.68 g) in 50 mL of water and adjusting the pH to 6.8 with 1 M NaOH. The volume was subsequently made up to 100 mL with water. 200 mg porcine pancreatin (P1625, Sigma Aldrich) was gently dissolved into 20 mL preheated (37° C.) solution (10 g/L) immediately prior to the incubation.
The incubation was performed at 37° C. with gentle shaking. […] After the last timepoint, the sampling plate was mixed for 10 min on a shaking table and centrifuged 10 min at 2200 g. 70 μL resulting supernatant was diluted with 150 μL water, mixed and centrifugated before analysis by liquid chromatography high resolution mass spectrometry. […] Percent remaining at each timepoint was calculated relative to timepoint zero based on absolute peak areas.

human IL-23R = target: T1, human IL-23R (Homo sapiens, UniProt Q5VWK5); assay: Binding assay (NanoBRET displacement of fluorophore-labelled reference compound) for estimating binding affinity to human IL-23R; conditions: Table 3-1; read-out: Ki hIL-23R
T1 construct: UniProtKB—Q5VWK5, amino acids 22-629; secretion signal of the plasmid (Promega N1371); expressed in transfected cells
T1 sequence (Q5VWK5 22-629): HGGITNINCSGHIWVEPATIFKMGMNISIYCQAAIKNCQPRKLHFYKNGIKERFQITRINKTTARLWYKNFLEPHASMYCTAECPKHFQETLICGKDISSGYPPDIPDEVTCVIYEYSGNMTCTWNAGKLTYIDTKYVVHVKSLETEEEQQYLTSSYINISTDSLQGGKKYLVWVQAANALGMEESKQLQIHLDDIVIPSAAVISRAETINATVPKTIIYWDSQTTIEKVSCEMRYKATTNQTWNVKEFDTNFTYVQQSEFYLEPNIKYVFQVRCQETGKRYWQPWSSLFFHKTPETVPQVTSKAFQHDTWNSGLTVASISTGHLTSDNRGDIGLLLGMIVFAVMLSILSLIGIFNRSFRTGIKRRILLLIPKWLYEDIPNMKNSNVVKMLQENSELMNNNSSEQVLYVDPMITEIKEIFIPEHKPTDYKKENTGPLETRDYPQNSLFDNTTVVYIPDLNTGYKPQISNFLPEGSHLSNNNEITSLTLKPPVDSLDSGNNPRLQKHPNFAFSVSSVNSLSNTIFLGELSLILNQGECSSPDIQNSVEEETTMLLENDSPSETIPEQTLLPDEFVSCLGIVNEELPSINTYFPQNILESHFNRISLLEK

[2] = Peptide stability in simulated intestinal fluid (SIF); assay type: in vitro ADME; conditions: pig
Method in brief: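 Peptides incubated at 37°C with gentle shaking in SGF (NaCl, HCl, pH 1.2) or SIF (phosphate pH 6.8 with 10 g/L porcine pancreatin). Samples analysed by LC-HRMS; percent remaining at each timepoint calculated from absolute peak areas relative to time zero.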

[3] = simulated gastric fluid (SGF) with porcine pepsin, Table 3-3, porcine pepsin, pH 1.2, 37° C., 10 μM, 4 h, read-out: SGF (% remaining 4 h)
[4] = simulated intestinal fluid (SIF) with porcine pancreatin, Table 3-2, porcine pancreatin, pH 6.8, 37° C., 10 μM, 1 h, read-out: SIF (% remaining 1 h)
[5] = simulated intestinal fluid (SIF) with porcine pancreatin, Table 3-2, porcine pancreatin, pH 6.8, 37° C., 10 μM, 4 h, read-out: SIF (% remaining 4 h)
[6] = simulated gastric fluid (SGF) with porcine pepsin, Table 3-3, porcine pepsin, pH 1.2, 37° C., 10 μM, 1 h, read-out: SGF (% remaining 1 h)

remaining at 4 h, 10 μM [1, 3] [%]	Ki (human IL-23R) [nM]	remaining at 1 h, 10 μM [2, 4] [%]	remaining at 4 h, 10 μM [2, 5] [%]	remaining at 1 h, 10 μM [1, 6] [%]	SMILES	also measured
89	0.0107	35	0	–	CC(C)C[C@]1(C)NC(=O)[C@H](Cc2ccc3ccccc3c2)NC(=O)[C@H](Cc2ccc(OCCN)cc2)NC(=O)[C@@H]2CCCNC(=O)CC[C@H](NC(=O)[C@H](CO)NC(=O)Cc3ccc(cc3)CNC(=O)CC[C@@H](C(=O)N[C@@H](CCN)C(=O)N[C@@H](Cc3cccnc3)C(N)=O)NC1=O)C(=O)N[C@@H](Cc1c[nH]c3ccccc13)C(=O)N[C@@H](CCC(N)=O)C(=O)N2 [Compound 124, [4-Aminomethyl-phenylacetyl](1c)*SE(2c)WQ[Orn](2c)[Y(2-aminoethoxy)][2-Nal][2-Me-Leu]E(1c)[Dab][3-(3-Pyridyl)-Ala]-[NH2]]	–
99	–	–	70	–	CC[C@H](C)[C@@H]1NC(=O)Cc2ccc(cc2)CNC(=O)CC[C@@H](C(=O)N[C@@H](CCN)C(=O)N[C@@](C)(Cc2cccnc2)C(N)=O)NC(=O)[C@](C)(C(C)C)NC(=O)[C@H](Cc2ccc(C)c(C)c2)NC(=O)[C@](C)(Cc2c[nH]c3ccccc23)NC(=O)[C@@H]2CCNC(=O)CC[C@H](NC1=O)C(=O)N[C@@H](Cc1c[nH]c3ccccc13)C(=O)N[C@@H](CCC(N)=O)C(=O)N2 [Compound 172, [4-Aminomethyl-phenylacetyl](1c)*IE(2c)WQ[Dab](2c)[alpha-Me-Trp][F(3,4-Me)][2-Me-Val]E(1c)[Dab][2-Me-3-(3-Pyridyl)-Ala]-[NH2]] ([X1]IEWQ[Dab][αMeW][Phe(3,4-Me2)][αMeV]E[Dab][αMeAla(3-pyridyl)]-NH2; lactam 3-6, N-10)	–
14	–	1	0	59	CC(C)C[C@]1(C)NC(=O)[C@H](Cc2ccc3ccccc3c2)NC(=O)[C@H](Cc2ccccc2)NC(=O)[C@@H]2CCNC(=O)CC[C@H](NC(=O)[C@H](CO)NC(=O)Cc3ccc(cc3)CNC(=O)CC[C@@H](C(=O)N[C@@H](CCN)C(N)=O)NC1=O)C(=O)N[C@@H](Cc1c[nH]c3ccccc13)C(=O)N[C@@H](CCC(N)=O)C(=O)N2 [Compound 130, [4-Aminomethyl-phenylacetyl](1c)*SE(2c)WQ[Dab](2c)F[2-Nal][2-Me-Leu]E(1c)[Dab]-[NH2]] ([X1]SEWQ[Dab]F[2Nal][αMeL]E[Dab]-NH2; lactam 3-6, N-10)	–

The remaining lines, values behind:

SMILES	remaining at 4 h, 10 μM [1, 3] [%]	Ki (human IL-23R) [nM]	remaining at 1 h, 10 μM [2, 4] [%]	remaining at 4 h, 10 μM [2, 5] [%]	remaining at 1 h, 10 μM [1, 6] [%]	also measured
CC(C)C[C@]1(C)NC(=O)[C@H](Cc2c[nH]c3cc(F)ccc23)NC(=O)[C@H](Cc2ccc(OCCN)cc2)NC(=O)[C@@H]2CSCC(=O)CSC[C@H](NC(=O)[C@H](CO)NC(=O)Cc3ccc(cc3)CNC(=O)CC[C@@H](C(=O)N[C@@H](CCN)C(=O)N[C@@H](Cc3cccnc3)C(N)=O)NC1=O)C(=O)N[C@@H](Cc1c[nH]c3ccccc13)C(=O)N[C@@H](CCC(N)=O)C(=O)N2 [Compound 121, [4-Aminomethyl-phenylacetyl](1c)*SC(2a)WQC(2a)[Y(2-aminoethoxy)][6-F-Trp][2-Me-Leu]E(1c)[Dab][3-(3-Pyridyl)-Ala]-[NH2]] ([X1]SCWQC[AEF][Trp(6-F)][αMeL]E[Dab][3Pal]-NH2; linker 3-6 via CH2COCH2; lactam N-10)	–	0.00954	–	–	–	remaining at 1 h, 10 μM ([1]; pH 1.2): 82%; remaining at 4 h, 10 μM ([1]; pH 1.2): 80%; remaining at 1 h, 10 μM ([2]; pH 6.8): 57%; remaining at 4 h, 10 μM ([2]; pH 6.8): 6%
CC(C)C[C@]1(C)NC(=O)[C@H](Cc2ccc3ccccc3c2)NC(=O)[C@H](Cc2ccc(OCCN)cc2)NC(=O)[C@@H]2CSCC(=O)CSC[C@H](NC(=O)[C@H](CO)NC(=O)c3cccc(c3)CNC(=O)CC[C@@H](C(=O)N[C@@H](CO)C(N)=O)NC1=O)C(=O)N[C@@H](Cc1c[nH]c3ccccc13)C(=O)N[C@@H](CCC(N)=O)C(=O)N2 [Compound 44, [(3-Aminomethyl)benzoyl](1c)*SC(2a)WQC(2a)[Y(2-aminoethoxy)][2-Nal][2-Me-Leu]E(1c)S-[NH2]]	73	4.87	79	–	–	–
CC(=O)N[C@@H](CC(=O)O)C(=O)N[C@H]1CCC(=O)NCCCC[C@@H](C(=O)N[C@@H](CCCNC(=N)N)C(N)=O)NC(=O)[C@](C)(CC(C)C)NC(=O)[C@H](Cc2ccc3ccccc3c2)NC(=O)[C@H](Cc2c[nH]c3ccccc23)NC(=O)[C@@H]2CSCC(=O)CSC[C@H](NC(=O)[C@H]([C@@H](C)O)NC1=O)C(=O)N[C@@H](Cc1c[nH]c3ccccc13)C(=O)N[C@@H](CCC(N)=O)C(=O)N2 [Compound 57, [Ac]-DE(1c)TC(2a)WQC(2a)W[2-Nal][2-Me-Leu]K(1c)R-[NH2]] (Ac-DETCWQCW[2Nal][αMeL]KR-NH2; lactam 2-11; linker 4-7 via CH2COCH2)	1	–	7	0	21	–
CC(=O)N[C@H]1CCCCNC(=O)CC[C@@H](C(=O)N[C@@H](CCCNC(=N)N)C(N)=O)NC(=O)[C@H](CC(C)C)NC(=O)[C@H](Cc2ccc3ccccc3c2)NC(=O)[C@H](Cc2c[nH]c3ccccc23)NC(=O)[C@@H]2CSCC(=O)CSC[C@H](NC(=O)[C@H](CO)NC1=O)C(=O)N[C@@H](Cc1cn(C)c3ccccc13)C(=O)N[C@@H](CCC(N)=O)C(=O)N2 [Compound 27, [Ac]-K(1c)SC(2a)[1-Me-Trp]QC(2a)W[2-Nal]LE(1c)R-[NH2]] (Ac-KSC[Trp(1-Me)]QCW[2Nal]LER-NH2; lactam 1-10; linker 3-6 via CH2COCH2)	0	–	0	0	0	–
CC(C)C[C@]1(C)NC(=O)[C@H](Cc2c[nH]c3ccccc23)NC(=O)[C@H](Cc2c[nH]c3ccccc23)NC(=O)[C@@H]2CSCC(=O)CSC[C@H](NC(=O)[C@H](CO)NC(=O)[C@@H](NC(=O)[C@@H](N)CC(=O)O)CSCC(=O)CSC[C@@H](C(=O)N[C@@H](CCCNC(=N)N)C(N)=O)NC1=O)C(=O)N[C@@H](Cc1c[nH]c3ccccc13)C(=O)N[C@@H](CCC(N)=O)C(=O)N2 [Compound 1, H-DC(1a)SC(2a)WQC(2a)WW[2-Me-Leu]C(1a)R-[NH2]]	–	–	–	–	–	remaining at 1 h, 10 μM ([1]; Table 3-3, porcine pepsin, pH 1.2, 37° C., 10 μM, 1 h, read-out: SGF (% remaining 1 h)): 86%; remaining at 4 h, 10 μM ([1]; Table 3-3, porcine pepsin, pH 1.2, 37° C., 10 μM, 4 h, read-out: SGF (% remaining 4 h)): 68%; remaining at 1 h, 10 μM ([2]; Table 3-2, porcine pancreatin, pH 6.8, 37° C., 10 μM, 1 h, read-out: SIF (% remaining 1 h)): 0%; remaining at 4 h, 10 μM ([2]; Table 3-2, porcine pancreatin, pH 6.8, 37° C., 10 μM, 4 h, read-out: SIF (% remaining 4 h)): 0%
CC(=O)N[C@@H](CC(=O)O)C(=O)N[C@H]1CCC(=O)NCCCC[C@@H](C(=O)NCC(N)=O)NC(=O)[C@](C)(CC(C)C)NC(=O)[C@H](Cc2ccc3ccccc3c2)NC(=O)[C@H](Cc2c[nH]c3ccccc23)NC(=O)[C@@H]2CSCC(=O)CSC[C@H](NC(=O)[C@H](CO)NC1=O)C(=O)N[C@@H](Cc1c[nH]c3ccccc13)C(=O)N[C@@H](CCC(N)=O)C(=O)N2 [Compound 60, [Ac]-DE(1c)SC(2a)WQC(2a)W[2-Nal][2-Me-Leu]K(1c)G-[NH2]] (Ac-DESCWQCW[2Nal][αMeL]KG-NH2; lactam 2-11; linker 4-7 via CH2COCH2)	0	–	69	12	7	–
